Assay results: the supplement of paper PMC10307832

Experiments:
Assay in all cases: relative viability (nuclei count vs DMSO), 5 days (fraction); higher = more cells survive
Erlotinib + OSI-027 = compound: C#Cc1cccc(Nc2ncnc3cc(OCCOC)c(OCCOC)cc23)c1 [Erlotinib] + COc1cccc2cc(-c3nc([C@H]4CC[C@H](C(=O)O)CC4)n4ncnc(N)c34)[nH]c12 [OSI-027] (partner 0.5 µM)
Summary of the method: (§1)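 Five library-drug doses in √10 steps were combined with a fixed anchor-drug dose, or a single drug was given alone, by pin tool to lung cancer cell lines in 1536-well plates the day after seeding. Nuclei were stained and counted after 5 days. Relative viability is the nuclei count in treated wells over that in vehicle wells, taken as the median of duplicate plates.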

Erlotinib + Pemetrexed = compound: C#Cc1cccc(Nc2ncnc3cc(OCCOC)c(OCCOC)cc23)c1 [Erlotinib] + Nc1nc2[nH]cc(CCc3ccc(C(=O)N[C@@H](CCC(=O)O)C(=O)O)cc3)c2c(=O)[nH]1 [Pemetrexed] (partner 0.2 µM)
Summary of the method: as §1

AT9283 + Luminespib = compound: O=C(Nc1c[nH]nc1-c1nc2ccc(CN3CCOCC3)cc2[nH]1)NC1CC1 [AT9283] + CCNC(=O)c1noc(-c2cc(C(C)C)c(O)cc2O)c1-c1ccc(CN2CCOCC2)cc1 [Luminespib] (partner 0.01 µM)
Summary of the method: as §1

AT9283 + Dasatinib = compound: O=C(Nc1c[nH]nc1-c1nc2ccc(CN3CCOCC3)cc2[nH]1)NC1CC1 [AT9283] + Cc1nc(Nc2ncc(C(=O)Nc3c(C)cccc3Cl)s2)cc(N2CCN(CCO)CC2)n1 [Dasatinib] (partner 0.075 µM)
Summary of the method: as §1

Erlotinib + Bortezomib = compound: C#Cc1cccc(Nc2ncnc3cc(OCCOC)c(OCCOC)cc23)c1 [Erlotinib] + CC(C)C[C@H](NC(=O)[C@H](Cc1ccccc1)NC(=O)c1cnccn1)B(O)O [Bortezomib] (partner 0.002 µM)
Summary of the method: as §1

Row | Cell Line | relative viability (Erlotinib + OSI-027; first compound 0.02 µM) | relative viability (Erlotinib + OSI-027; first compound 0.2 µM) | relative viability (Erlotinib + OSI-027; first compound 0.6325 µM) | relative viability (Erlotinib + OSI-027; first compound 2 µM) | relative viability (Erlotinib + Pemetrexed; first compound 0.02 µM) | relative viability (Erlotinib + Pemetrexed; first compound 0.2 µM) | relative viability (Erlotinib + Pemetrexed; first compound 0.6325 µM) | relative viability (Erlotinib + Pemetrexed; first compound 2 µM) | relative viability (AT9283 + Luminespib; first compound 0.003 µM) | relative viability (AT9283 + Luminespib; first compound 0.03 µM) | relative viability (AT9283 + Luminespib; first compound 0.09487 µM) | relative viability (AT9283 + Luminespib; first compound 0.3 µM) | relative viability (AT9283 + Dasatinib; first compound 0.003 µM) | relative viability (AT9283 + Dasatinib; first compound 0.03 µM) | relative viability (AT9283 + Dasatinib; first compound 0.09487 µM) | relative viability (AT9283 + Dasatinib; first compound 0.3 µM) | relative viability (Erlotinib + Bortezomib; first compound 0.02 µM) | relative viability (Erlotinib + Bortezomib; first compound 0.2 µM) | relative viability (Erlotinib + Bortezomib; first compound 0.6325 µM) | relative viability (Erlotinib + Bortezomib; first compound 2 µM)
1 | NCI-H661 | 0.748 | 0.707 | 0.655 | 0.443 | 0.925 | 0.841 | 0.838 | 0.828 | 0.916 | 0.399 | 0.304 | 0.313 | 0.862 | 0.355 | 0.307 | 0.26 | 0.887 | 0.555 | 0.881 | 0.646
2 | NCI-H1651 | 0.628 | 0.698 |  | 0.482 | 0.619 | 0.417 | 0.509 | 0.52 | 0.725 | 0.826 | 0.773 | 0.623 | 0.442 | 0.368 | 0.319 | 0.212 | 0.912 | 0.909 | 0.918 | 0.882
3 | RERF-LC-KJ | 0.528 | 0.417 | 0.394 | 0.337 | 0.461 | 0.457 | 0.444 | 0.44 | 1.24 | 0.792 | 0.362 | 0.28 | 0.864 | 0.391 | 0.212 | 0.188 | 1.04 | 1.01 | 0.854 | 0.762
4 | HOP-62 | 0.917 | 0.848 | 1.04 | 0.754 | 0.285 | 0.332 | 0.255 | 0.312 | 0.916 | 0.783 | 0.279 | 0.292 | 0.666 | 0.58 | 0.295 | 0.186 | 1.08 | 0.5 | 0.316 | 1.02
5 | NCI-H2228 | 0.643 | 0.537 | 0.525 | 0.366 | 0.335 | 0.295 | 0.362 | 0.337 | 0.152 | 0.123 | 0.162 | 0.11 | 0.491 | 0.503 | 0.307 | 0.0747 | 1.06 | 1.03 | 1.02 | 0.8
6 | NCI-H1755 | 0.757 | 0.776 | 0.786 | 0.619 | 0.477 | 0.398 | 0.402 | 0.368 | 0.607 | 0.446 | 0.553 | 0.407 | 0.451 | 0.437 | 0.265 | 0.272 | 1.06 | 1.01 | 0.957 | 0.9
7 | NCI-H2126 | 0.668 | 0.592 | 0.532 | 0.366 | 0.717 | 0.6 | 0.415 | 0.376 | 0.949 | 0.954 | 0.826 | 0.422 | 0.587 | 0.602 | 0.439 | 0.271 | 1.12 | 1.11 | 0.964 | 0.769
8 | NCI-H520 | 0.282 | 0.387 | 0.271 | 0.226 | 0.847 | 0.749 |  | 0.609 | 0.247 | 0.23 | 0.204 | 0.254 | 0.2 | 0.174 | 0.147 | 0.145 | 0.75 | 0.261 | 0.722 | 0.455
9 | A-427 | 0.449 | 0.537 | 0.468 | 0.482 | 0.967 | 1.04 | 1.06 | 1.01 | 0.822 | 0.486 | 0.319 | 0.176 | 0.698 | 0.402 | 0.124 | 0.131 | 1.01 | 1.04 | 1.1 | 0.951
